According to patent publication US9969716B2, “Indole derivatives as modulators of methyl modifying enzymes, compositions and uses thereof” (Constellation Pharmaceuticals, Inc., priority 2013, dated 2018):
Read-outs that look alike come from different tables or passages of the source.

How the values were obtained:
[1] = system: H3K27me3 mark in HeLa cells; test: H3K27me3 Alpha Hela Assay (AlphaLISA); assay type: cell-based; settings: Homo sapiens, 72 hrs, read-out: EZH2_Cell_H3K27me3_Alpha_HeLa (EC50_K27me3)
Protocol: Ten different doses of each test compound (in a series of 3-fold dilutions) were plated in duplicate 384-well tissue culture treated plates (Catalog #781080; Greiner Bio One; Monroe, N.C.). Hela cells grown in culture were trypsinized and counted using a Countess® cell counter (Catalog # C10281; Life Technologies, Grand Island, N.Y.). Cell were diluted to 67,000 cells per mL in 10% DMEM (Catalog #10569-010 Life Technologies, Grand Island, N.Y.) and 15 μL (1,000 cells) were plated into each well using the Biotek MicroFlo™ Select Dispenser (BioTek Instruments, Inc. Vermont, USA),) of the 384-well plate. Plates were incubated at 37° C./5% CO2 for 72 hrs. One of the duplicate plates was processed for HeLa assay and the other for viability.
To the plate processed for AlphaLISA was added 5 μL per well Cell-Histone Lysis buffer (1λ) (Catalog # AL009F1 Perkin Elmer; Waltham, Mass.) and the plate was incubated at RT for 30 minutes on a plate shaker with low speed (Model#4625-Q Thermo Scientific; Waltham, Mass.). Then, 10 μL per well Histone Extraction buffer (catalog # AL009F2; Perkin Elmer; Waltham, Mass.) was added and the plate further incubated at RT for 20 min on plate shaker with low speed. To each well was then added 10 μL per well of a 5× mix of anti-K27me3 acceptor beads plus Biotinylated anti-Histone H3 (C-ter) Antibody (diluted to 3 nM final) (Catalog #AL118 Perkin Elmer; Waltham, Mass.). Dilution of the acceptor beads and then anti-Histone H3 was with 1× Histone Detection buffer (Catalog # AL009F3 Perkin Elmer; Waltham, Mass.) which was produced diluted from the 10× stock provided. The plate was sealed with an aluminum plate sealer and incubated at 23° C. for 60 min. We then added 10 μL 5× solution of Streptavidin Donor beads (Catalog #6760002 Perkin Elmer; Waltham, Mass.) (20 μg/mL final in 1× Histone Detection Buffer), sealed the plate with Aluminum plate sealer and incubated at 23° C. for 30 min. The plates were then read using an EnVision-Alpha Reader (model #2104 Perkin Elmer; Waltham, Mass.).
Data from both assays was analyzed using Assay Assistant (Constellation Pharmaceuticals In-house product) and Activity Base (IDBS Ltd, Surrey, UK) template. Data files were imported to Assay Assistant and assay conditions were specified. A unique Analysis ID was created and the data files exported to Activity Base. An analysis template was created on Activity Base to measure dose-dependent inhibition of H3K27me3 mark and cell viability respectively. Readout of DMSO wells were used to normalize the data. Resulting curves were fitted using Activity base software Model 205 (IDBS Ltd, Surrey, UK). The data was checked for quality, validated and integrated in excel format using SARview (IDBS Ltd, Surrey, UK).

EZH2 = EZH2 (Homo sapiens, UniProt Q15910); test: EZH2 assay (rPRC2, 3H SAM methyl transfer to biotinylated oligonucleosomes, FlashPlate); assay type: biochemical
Sequence of EZH2 (Q15910 whole entry): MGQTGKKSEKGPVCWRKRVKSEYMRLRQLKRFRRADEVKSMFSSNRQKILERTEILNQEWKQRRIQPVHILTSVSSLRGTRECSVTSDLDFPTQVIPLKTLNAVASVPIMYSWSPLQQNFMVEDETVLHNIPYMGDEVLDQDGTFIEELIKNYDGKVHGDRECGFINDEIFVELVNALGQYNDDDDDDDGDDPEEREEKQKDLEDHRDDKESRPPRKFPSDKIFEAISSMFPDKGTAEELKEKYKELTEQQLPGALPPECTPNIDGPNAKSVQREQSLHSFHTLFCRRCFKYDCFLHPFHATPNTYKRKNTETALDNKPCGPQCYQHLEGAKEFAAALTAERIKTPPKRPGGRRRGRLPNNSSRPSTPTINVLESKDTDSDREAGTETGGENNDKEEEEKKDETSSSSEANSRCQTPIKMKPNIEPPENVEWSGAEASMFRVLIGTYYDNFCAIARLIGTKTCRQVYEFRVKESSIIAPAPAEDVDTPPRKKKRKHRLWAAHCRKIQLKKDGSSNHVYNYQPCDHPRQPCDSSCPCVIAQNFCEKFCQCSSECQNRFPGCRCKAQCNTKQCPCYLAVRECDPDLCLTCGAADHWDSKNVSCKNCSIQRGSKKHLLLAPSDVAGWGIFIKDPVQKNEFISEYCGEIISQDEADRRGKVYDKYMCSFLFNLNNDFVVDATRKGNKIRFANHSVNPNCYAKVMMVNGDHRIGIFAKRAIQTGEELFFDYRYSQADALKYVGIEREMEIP
Sequence of EZH2 (O75530 whole entry partner): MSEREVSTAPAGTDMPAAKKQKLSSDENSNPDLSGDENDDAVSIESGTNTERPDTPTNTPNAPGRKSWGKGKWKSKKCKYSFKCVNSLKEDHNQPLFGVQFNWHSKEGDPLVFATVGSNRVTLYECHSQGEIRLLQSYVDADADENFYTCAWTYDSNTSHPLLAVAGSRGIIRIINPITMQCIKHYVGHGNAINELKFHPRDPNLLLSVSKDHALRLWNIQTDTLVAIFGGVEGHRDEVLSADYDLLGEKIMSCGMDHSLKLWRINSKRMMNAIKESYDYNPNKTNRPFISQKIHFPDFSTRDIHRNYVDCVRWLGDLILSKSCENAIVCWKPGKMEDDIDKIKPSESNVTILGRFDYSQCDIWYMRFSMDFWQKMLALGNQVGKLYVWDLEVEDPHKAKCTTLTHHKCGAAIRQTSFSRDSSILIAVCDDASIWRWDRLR
Sequence of EZH2 (Q15022 whole entry partner): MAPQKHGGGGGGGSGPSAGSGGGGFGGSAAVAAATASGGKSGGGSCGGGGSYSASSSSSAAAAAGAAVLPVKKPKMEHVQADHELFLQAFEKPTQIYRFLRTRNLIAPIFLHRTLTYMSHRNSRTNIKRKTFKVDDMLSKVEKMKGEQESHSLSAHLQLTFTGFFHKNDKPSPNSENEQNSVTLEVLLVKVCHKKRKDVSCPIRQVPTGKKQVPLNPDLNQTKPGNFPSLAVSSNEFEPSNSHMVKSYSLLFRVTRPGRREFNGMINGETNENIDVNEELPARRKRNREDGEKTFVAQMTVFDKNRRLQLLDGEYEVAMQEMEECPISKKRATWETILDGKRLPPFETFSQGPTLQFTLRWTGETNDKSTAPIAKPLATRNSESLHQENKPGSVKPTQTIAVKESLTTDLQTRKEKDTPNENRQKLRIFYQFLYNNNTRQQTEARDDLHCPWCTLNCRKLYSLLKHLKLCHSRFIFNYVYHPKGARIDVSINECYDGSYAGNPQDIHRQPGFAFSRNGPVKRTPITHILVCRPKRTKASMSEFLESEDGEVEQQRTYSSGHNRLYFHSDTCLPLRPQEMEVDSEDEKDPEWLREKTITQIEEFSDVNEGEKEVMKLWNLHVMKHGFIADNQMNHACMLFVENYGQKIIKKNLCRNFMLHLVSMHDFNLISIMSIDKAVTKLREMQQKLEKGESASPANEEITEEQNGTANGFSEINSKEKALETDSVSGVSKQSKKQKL
Protocol: EZH2 Assay: Assays were carried out by mixing rPRC2 together with biotinylated oligonucleosome substrates in the presence of the radio-labeled enzyme co-factor, S-adenosyl-L-methionine (^3H SAM) (Perkin Elmer) and monitoring the enzymatically mediated transfer of tritiated methyl groups from ^3H SAM to histone lysine residues. The amount of resulting tritiated methyl histone product was measured by first capturing the biotinylated oligonucleosomes in streptavidin (SAV) coated FlashPlates (Perkin Elmer), followed by a wash step to remove un-reacted ^3H SAM, and then counting on a TopCount NXT 384 well plate scintillation counter (Perkin Elmer). The final assay conditions for EZH2 were as follows: 50 mM Tris Buffer pH 8.5, 1 mM DTT, 69 μM Brij-35 detergent, 5.0 mM MgCl2, 0.1 mg/mL BSA, 0.2 μM ^3H SAM, 0.2 μM biotinylated oligonucleosomes, 3.6 μM H3K27me3 peptide and 2 nM EZH2.
A 12.5 μL volume of the HMT enzyme, H3K27me3 peptide and oligonucleosome substrate in assay buffer was added to each well of the assay plate using a Multidrop Combi (ThermoFisher). Compounds were pre-incubated with the enzyme for 20 min, followed by initiation of the methyltransferase reaction by addition of 12.5 μL of ^3H SAM in assay buffer (final volume=25 μL). The final concentrations of compounds ranged from a top default concentration of 80 μM down to 0.16 μM in ten 2-fold dilution steps. Reactions were carried out for 60 minutes and quenched with 20 μL per well of 1.96 mM SAH, 50 mM Tris pH 8.5, 200 mM EDTA. Stopped reactions were transferred to SAV coated Flashplates (Perkin Elmer), incubated for 120 min, washed with a plate washer, and then read on the TopCount NXT (1.0 min/well) to measure the amount of methyl histone product formed during the reaction.

## COc1cc(C)[nH]c(=O)c1CNC(=O)c1c(C)n([C@H](C)C2CCN(C(=O)C3CCC(C)CC3)CC2)c2ccccc12 (mixture of isomers) [Compound 234]
[1]
  EC50: < 400 nM
EZH2
  IC50: < 100 nM

## CCC(F)(F)CN1CCC([C@@H](C)n2c(C)c(C(=O)NCc3c(OC)cc(C)[nH]c3=O)c3ccccc32)CC1 [Compound 108]
[1]
  EC50: < 400 nM
EZH2
  IC50: < 100 nM

## COc1cc(C)[nH]c(=O)c1CNC(=O)c1c(C)n([C@H](C)C2CCN(C(=O)C(C)(C)C(F)(F)F)CC2)c2ccccc12 [Compound 114]
[1]
  EC50: < 400 nM
EZH2
  IC50: < 100 nM

## COC(C)(C)CN1CCC([C@@H](C)n2c(C)c(C(=O)NCc3c(C)cc(C)[nH]c3=O)c3ccccc32)CC1 [Compound 127]
[1]
  EC50: < 400 nM
EZH2
  IC50: < 100 nM

## COc1cc(C)[nH]c(=O)c1CNC(=O)c1c(C)n([C@H](C)C2CCN(CC(C)(C)OC)CC2)c2ccccc12 [Compound 128]
[1]
  EC50: < 400 nM

## CCCc1cc(C)[nH]c(=O)c1CNC(=O)c1c(C)n([C@H](C)C2CCN(S(=O)(=O)CC)CC2)c2ccccc12 [Compound 132]
[1]
  EC50: < 400 nM

## COc1cc(C)[nH]c(=O)c1CNC(=O)c1c(C)n([C@H](C)C2CCN(CC3(C(F)(F)F)CCC3)CC2)c2ccccc12 [Compound 135]
[1]
  EC50: < 400 nM

## CCS(=O)(=O)N1CCC([C@@H](C)n2c(C)c(C(=O)NCc3c(OCC(F)(F)F)cc(C)[nH]c3=O)c3ccccc32)CC1 [Compound 163]
[1]
  EC50: 400 to 2000 nM

## COc1cc(C)[nH]c(=O)c1CNC(=O)c1c(C)n([C@H](C)C2CCN(CC(C)=O)CC2)c2ccccc12 [Compound 169]
EZH2; 2 nM EZH2, 0.2 μM 3H SAM, 0.2 μM biotinylated oligonucleosomes, 3.6 μM H3K27me3 peptide, 60 min, read-out: EZH2_nuc_BSA_Brij_1.5 (IC50)
  IC50: < 100 nM

## COc1cc(C)[nH]c(=O)c1CNC(=O)c1c(C)n([C@H](C)C2CCN(CC(F)(F)CO)CC2)c2ccccc12 [Compound 175]
[1]
  EC50: 400 to 2000 nM
EZH2
  IC50: < 100 nM

## COc1cc(C)[nH]c(=O)c1CNC(=O)c1c(C)n([C@H](C)C2CCN(C(C)C(F)F)CC2)c2ccccc12 (some centres unmarked) [Compound 177]
[1]
  EC50: < 400 nM
EZH2
  IC50: < 100 nM

## COc1cc(C)[nH]c(=O)c1CNC(=O)c1c(C)n([C@H](C)C2CCN(CC3CCO3)CC2)c2ccccc12 (some centres unmarked) [Compound 179]
[1]
  EC50: 400 to 2000 nM
EZH2
  IC50: < 100 nM

## COc1cc(C)[nH]c(=O)c1CNC(=O)c1c(C)n([C@H](C)C2CCN(CC3COC3)CC2)c2ccccc12 [Compound 180]
[1]
  EC50: > 2000 nM
EZH2
  IC50: < 100 nM

## COCC(F)(F)CN1CCC([C@@H](C)n2c(C)c(C(=O)NCc3c(OC)cc(C)[nH]c3=O)c3ccccc32)CC1 [Compound 181]
[1]
  EC50: < 400 nM
EZH2
  IC50: < 100 nM

## COc1cc(C)[nH]c(=O)c1CNC(=O)c1c(C)n([C@H](C)C2CCN(CC(C)(C)C#N)CC2)c2ccccc12 [Compound 185]
[1]
  EC50: 400 to 2000 nM
EZH2
  IC50: < 100 nM

## COc1cc(C)[nH]c(=O)c1CNC(=O)c1c(C)n([C@H](C)C2CCN(C(=O)CC#N)CC2)c2ccccc12 [Compound 186]
[1]
  EC50: 400 to 2000 nM
EZH2
  IC50: < 100 nM

## COc1cc(C)[nH]c(=O)c1CNC(=O)c1c(C)n([C@H](C)C2CCN(C(=O)C3(C)COC3)CC2)c2ccccc12 [Compound 189]
[1]
  EC50: 400 to 2000 nM
EZH2
  IC50: < 100 nM

## COc1cc(C)[nH]c(=O)c1CNC(=O)c1c(C)n([C@H](C)C2CCN(C(=O)C3(C)CC3)CC2)c2ccccc12 [Compound 190]
[1]
  EC50: 400 to 2000 nM
EZH2
  IC50: < 100 nM

## COc1cc(C)[nH]c(=O)c1CNC(=O)c1c(C)n([C@H](C)C2CCN(C(=O)C3(C)CCCC3)CC2)c2ccccc12 [Compound 191]
[1]
  EC50: 400 to 2000 nM
EZH2
  IC50: < 100 nM

## COc1cc(C)[nH]c(=O)c1CNC(=O)c1c(C)n([C@H](C)C2CCN(C(=O)C3(C)CN(C)C3)CC2)c2ccccc12 [Compound 192]
[1]
  EC50: > 2000 nM
EZH2
  IC50: < 100 nM

## COc1cc(C)[nH]c(=O)c1CNC(=O)c1c(C)n([C@H](C)C2CCN(CCC#N)CC2)c2ccccc12 [Compound 206]
[1]
  EC50: < 400 nM
EZH2
  IC50: < 100 nM

## COc1cc(C)[nH]c(=O)c1CNC(=O)c1c(C)n([C@H](C)C2CCN(CCS(C)(=O)=O)CC2)c2ccccc12 [Compound 207]
[1]
  EC50: > 2000 nM
EZH2
  IC50: < 100 nM

## CCCC(=O)N1CCC([C@@H](C)n2c(C)c(C(=O)NCc3c(OC)cc(C)[nH]c3=O)c3ccccc32)CC1 [Compound 209]
[1]
  EC50: 400 to 2000 nM
EZH2
  IC50: < 100 nM

## CCC(C)C(=O)N1CCC([C@@H](C)n2c(C)c(C(=O)NCc3c(OC)cc(C)[nH]c3=O)c3ccccc32)CC1 (some centres unmarked) [Compound 210]
[1]
  EC50: 400 to 2000 nM
EZH2
  IC50: < 100 nM

## COc1cc(C)[nH]c(=O)c1CNC(=O)c1c(C)n([C@H](C)C2CCN(C(=O)C(C)=O)CC2)c2ccccc12 [Compound 211]
[1]
  EC50: 400 to 2000 nM
EZH2
  IC50: < 100 nM

## COc1cc(C)[nH]c(=O)c1CNC(=O)c1c(C)n([C@H](C)C2CCN(C(=O)Cc3ccccc3)CC2)c2ccccc12 [Compound 212]
[1]
  EC50: < 400 nM
EZH2
  IC50: < 100 nM

## COc1cc(C)[nH]c(=O)c1CNC(=O)c1c(C)n([C@H](C)C2CCN(C(=O)CC(C)C)CC2)c2ccccc12 [Compound 213]
[1]
  EC50: < 400 nM
EZH2
  IC50: < 100 nM

## COc1cc(C)[nH]c(=O)c1CNC(=O)c1c(C)n([C@H](C)C2CCN(C(=O)c3ccc(C#N)cc3)CC2)c2ccccc12 [Compound 214]
[1]
  EC50: 400 to 2000 nM
EZH2
  IC50: < 100 nM

## COc1cc(C)[nH]c(=O)c1CNC(=O)c1c(C)n([C@H](C)C2CCN(C(=O)C3CCC3)CC2)c2ccccc12 [Compound 216]
[1]
  EC50: < 400 nM
EZH2
  IC50: < 100 nM

## CC[C@H](C1CCN(CC(F)F)CC1)n1c(C)c(C(=O)NCc2c(OC)cc(C)[nH]c2=O)c2ccccc21 [Compound 219]
[1]
  EC50: < 400 nM
EZH2
  IC50: < 100 nM

## COc1cc(C)[nH]c(=O)c1CNC(=O)c1c(C)n([C@H](C)C2CCN(CC3(C)COC3)CC2)c2ccccc12 [Compound 220]
[1]
  EC50: < 400 nM
EZH2
  IC50: < 100 nM

## COc1cc(C)[nH]c(=O)c1CNC(=O)c1c(C)n([C@H](C)C2CCN(C)CC2F)c2ccccc12 (some centres unmarked) [Compound 221]
[1]
  EC50: < 400 nM
EZH2
  IC50: < 100 nM

## COc1cc(C)[nH]c(=O)c1CNC(=O)c1c(C)n([C@H](C)C2CCN(CC3(F)COC3)CC2)c2ccccc12 [Compound 222]
[1]
  EC50: < 400 nM
EZH2
  IC50: < 100 nM

## COc1cc(C)[nH]c(=O)c1CNC(=O)c1c(C)n([C@H](C)C2CCN(C(=O)C3CC(F)(F)C3)CC2)c2ccccc12 [Compound 228]
[1]
  EC50: 400 to 2000 nM
EZH2
  IC50: < 100 nM

## COc1cc(C)[nH]c(=O)c1CNC(=O)c1c(C)n([C@H](C)C2CCN(C(=O)C3CC3(F)F)CC2)c2ccccc12 (some centres unmarked) [Compound 229]
[1]
  EC50: 400 to 2000 nM
EZH2
  IC50: < 100 nM

## COCC(F)(F)C(=O)N1CCC([C@@H](C)n2c(C)c(C(=O)NCc3c(OC)cc(C)[nH]c3=O)c3ccccc32)CC1 [Compound 230]
[1]
  EC50: < 400 nM
EZH2
  IC50: < 100 nM

## CC(=O)N1CC(N2CCC([C@@H](C)n3c(C)c(C(=O)NCc4c(C)cc(C)[nH]c4=O)c4ccccc43)CC2)C1 [Compound 231]
[1]
  EC50: 400 to 2000 nM
EZH2
  IC50: < 100 nM

## COc1cc(C)[nH]c(=O)c1CNC(=O)c1c(C)n([C@H](C)C2CCN(Cc3ccc(C#N)cc3)CC2)c2ccccc12 [Compound 232]
[1]
  EC50: < 400 nM
EZH2
  IC50: < 100 nM
